Experimental findings from ChEMBL document CHEMBL4229366, “Synthesis and evaluation of novel coumarin-oxime ethers as potential anti-tubercular agents: Their DNA cleavage ability and BSA interaction study” (Eur J Med Chem, 2018) are described below.

≈ marks a conversion by molar mass, not a printed value. Calls of active or inactive are those of the source. No cut-off for these calls is given here.

In data set [1] the test system is Mycobacterium tuberculosis. Kind of data set: Antitubercular activity against Mycobacterium tuberculosis H37Rv ATCC 27294 after 5 days by MABA method. In kind it is functional. As to conditions: H37Rv ATCC 27294, 120 h.
A short description of data set [2]: Dissociation constant, pKa of the compound by potentiometric titration method. In kind it is physicochemical.
The nature of data set [3]: Cytotoxicity against African green monkey Vero cells assessed as cell survival at 1.9 ug/ml after 72 hrs by MTS-PMS assay. The format is cell-based. To be noted: chlorocebus sabaeus, read-out: Survival.
Data set [4] in a line: Stability of the compound at pH 4.4 to 8.6 by electronic absorption spectroscopic analysis. The format is physicochemical. As to conditions: buffer.
In data set [5] the test system is Mycobacterium tuberculosis. Kind of data set: Antitubercular activity against Mycobacterium tuberculosis H37Rv ATCC 27294 at 6.25 ug/ml after 5 days by MABA method. To be noted: H37Rv ATCC 27294, 120 h, read-out: GI. In kind it is functional. (In general: Resazurin is reduced to fluorescent resorufin, in cell work by metabolically active cells.)
Data set [6] has as its system Calf thymus DNA. Kind of data set: Induction of calf thymus DNA cleavage at 5 uM by ethidium bromide based agarose gel electrophoresis method. As to conditions: Bos taurus. In kind it is nucleic-acid assay.
Data set [7] in a line: Cytotoxicity against African green monkey Vero cells assessed as cell survival at 3.9 ug/ml after 72 hrs by MTS-PMS assay. To be noted: chlorocebus sabaeus, read-out: Survival. The format is cell-based. (Formazan colour is commonly taken as a measure of viable cells.)
Data set [8] concerns the target T1, Albumin (Bos taurus, UniProt P02769). Description: Binding affinity to bovine serum albumin in pH 7.4 phosphate buffer at 27 degC assessed as association constant by UV-vis spectroscopic analysis. To be noted: cattle, isolated protein. In kind it is ADME.
Data set [9] can be described thus: Stability of the compound at pH 4.4 to 8.2 by electronic absorption spectroscopic analysis. As to conditions: buffer. In kind it is physicochemical.
Data set [10] has as its target T1, Albumin. Kind of data set: Binding affinity to bovine serum albumin assessed as association constant in phosphate buffer of pH 7.4 by fluorescence spectroscopic analysis. The format is ADME. To be noted: cattle, isolated protein.
Data set [11] addresses T1, Albumin. Kind of data set: Binding affinity to bovine serum albumin assessed as Stern-Volmer quenching constant in phosphate buffer of pH 7.4 by fluorescence spectroscopic analysis. The format is ADME. To be noted: cattle, isolated protein.
A short description of data set [12]: Cytotoxicity against African green monkey Vero cells assessed as cell survival at 0.4 ug/ml after 72 hrs by MTS-PMS assay. In kind it is cell-based. To be noted: chlorocebus sabaeus, read-out: Survival.
For data set [13], the target named is T1, Albumin. Kind of data set: Binding affinity to bovine serum albumin assessed as quenching constant in phosphate buffer of pH 7.4 by fluorescence spectroscopic analysis. The format is ADME. To be noted: cattle, isolated protein.
The target in data set [14] is T1, Albumin. Description: Binding affinity to bovine serum albumin in pH 7.4 phosphate buffer at 27 degC by UV-vis spectroscopic analysis. As to conditions: cattle, isolated protein. In kind it is ADME.
The target of data set [15] is T1, Albumin. Description: Binding affinity to bovine serum albumin in pH 7.4 phosphate buffer at 27 degC assessed as Gibbs free energy change by UV-vis spectroscopic analysis. In kind it is ADME. As to conditions: cattle, isolated protein.
Data set [16] is described as follows: Cytotoxicity against African green monkey Vero cells assessed as cell survival at 0.2 ug/ml after 72 hrs by MTS-PMS assay. The format is cell-based. To be noted: chlorocebus sabaeus, read-out: Survival.
The nature of data set [17]: Cytotoxicity against African green monkey Vero cells assessed as cell survival at 31.2 ug/ml after 72 hrs by MTS-PMS assay. As to conditions: chlorocebus sabaeus, read-out: Survival. The format is cell-based.
A short description of data set [18]: Cytotoxicity against African green monkey Vero cells assessed as cell survival at 0.9 ug/ml after 72 hrs by MTS-PMS assay. As to conditions: chlorocebus sabaeus, read-out: Survival. The format is cell-based.

T1 sequence (P02769 whole entry): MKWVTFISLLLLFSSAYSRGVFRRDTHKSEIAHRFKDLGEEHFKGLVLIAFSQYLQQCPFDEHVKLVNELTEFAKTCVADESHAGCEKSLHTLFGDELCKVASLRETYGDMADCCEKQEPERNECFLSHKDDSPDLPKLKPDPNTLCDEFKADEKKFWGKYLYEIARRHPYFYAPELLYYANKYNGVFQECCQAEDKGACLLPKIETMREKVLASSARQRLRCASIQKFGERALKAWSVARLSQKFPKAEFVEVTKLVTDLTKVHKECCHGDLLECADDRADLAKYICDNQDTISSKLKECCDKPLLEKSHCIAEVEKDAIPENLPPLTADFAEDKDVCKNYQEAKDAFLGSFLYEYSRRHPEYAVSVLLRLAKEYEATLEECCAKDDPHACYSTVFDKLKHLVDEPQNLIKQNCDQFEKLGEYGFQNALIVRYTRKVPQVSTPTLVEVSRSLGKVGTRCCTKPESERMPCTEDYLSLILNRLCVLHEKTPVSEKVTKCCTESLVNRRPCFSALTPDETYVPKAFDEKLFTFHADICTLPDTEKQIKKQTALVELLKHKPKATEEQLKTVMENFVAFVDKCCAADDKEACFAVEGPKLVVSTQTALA

Regarding `O=c1cc(CSC2=NCCS2)c2cc(Cl)ccc2o1`, in [1], the minimum inhibitory concentration (MIC) (commonly the least concentration at which growth counts as inhibited) came to 0.09 µg/mL (≈ 0.289 µM).
In [1], `COc1ccc2oc(=O)cc(CO/N=C(\C)C(C)=O)c2c1` gave a minimum inhibitory concentration (MIC) of 0.19 µg/mL (≈ 0.657 µM). In addition, in [2], the pKa – broadly, the pH at which an ionisable group is half protonated – turned out to be 5.8. Also, the viability at 72 h, 1.9 ug/ml in data set [3] was 78%. Further, the Stability entry in [4] is “Stable”. Moreover, in data set [5], the inhibition of growth at 6.25 µg/mL came to 94%. Also, in data set [6], the outcome was Active.
In data set [1], `CC(=O)/C(C)=N/OCc1cc(=O)oc2ccc(C)cc12` displayed a minimum inhibitory concentration (MIC) of 0.39 µg/mL (≈ 1.43 µM). In addition, the pKa in data set [2] came to 5.7. Also, the Stability entry in data set [4] was “Stable”. The inhibition of growth at 6.25 µg/mL in [5] amounted to 92%. For the same compound, the outcome in data set [6] was Active. In addition, the viability at 72 h, 3.9 ug/ml in data set [7] was 72%.
In data set [2], `CC(=O)/C(C)=N/OCc1cc(=O)oc2c1ccc1ccccc12` displayed a pKa of 5.6. The inhibition of growth at 6.25 µg/mL in data set [5] came out at 87%. Also, in data set [6], the outcome was inactive.
Take `CC(=O)/C(C)=N/OCc1cc(=O)oc2cc(C)cc(C)c12`: the Ka in [8] is listed as 1.24 ×10⁴ L/mol; in data set [10], 1.37 ×10⁴ L/mol. In [1], this compound showed a minimal inhibitory concentration (MIC) of 0.04 µg/mL (≈ 0.139 µM). Further, the pKa in [2] stood at 5.5. The Stability result in data set [9] is on record as “Stable”. For the same compound, the inhibition of growth at 6.25 µg/mL in data set [5] is 97%. Further, in [11], the KSV worked out at 6.19 ×10⁴ /mol. In data set [12], the viability at 72 h, 0.4 ug/ml is 89%. Also, in [13], the Kq is listed as 1.07 ×10¹³ /mol/s. In addition, the result in [6] was Active. In addition, the Activity result in data set [14] is given as “Dose-dependent effect”. In addition, the deltaG in data set [15] was -5.619 kcal/mol.
Regarding `CC(=O)/C(C)=N/OCc1cc(=O)oc2ccc(Br)cc12`, the pKa in data set [2] is 5.4. Further, the inhibition of growth at 6.25 µg/mL in data set [5] was found to be 81%. The result in data set [6] was Active.
Compound `CC(=O)/C(C)=N/OCc1cc(=O)oc2ccc(Cl)cc12` returned a pKa in data set [2] of 5.4. Further, the inhibition of growth at 6.25 µg/mL in data set [5] was found to be 26%. Further, in [6], the result was Active.
Consider `CC(=O)/C(C)=N/OCc1cc(=O)oc2cc(Cl)ccc12`, for which the pKa in [2] turned out to be 5.4. In addition, in [5], the inhibition of growth at 6.25 µg/mL was 21%. Further, the result in [6] was inactive.
With `NNC(=O)c1ccncc1` [ISONIAZID], the minimal inhibitory concentration (MIC) in data set [1] worked out at 0.02 µg/mL (≈ 0.146 µM). Moreover, the pKa in data set [2] lay within 1.8 to 9.5. The inhibition of growth at 6.25 µg/mL in data set [5] turned out to be 100%. Further, the viability at 72 h, 0.2 ug/ml in data set [16] is 98%.
With `CC(=O)/C(C)=N/OCc1cc(=O)oc2cc(C)ccc12`, in data set [1], the minimal inhibitory concentration (MIC) was 0.39 µg/mL (≈ 1.43 µM). Further, the pKa in [2] amounted to 5.5. The inhibition of growth at 6.25 µg/mL in [5] is 91%. In addition, in [6], the result was inactive. Further, the viability at 72 h, 3.9 ug/ml in data set [7] is 59%.
Regarding `CC(=O)/C(C)=N/OCc1cc(=O)oc2ccc3ccccc3c12`, in [17], the viability at 72 h, 31.2 ug/ml came to 67%. The same compound displayed a minimum inhibitory concentration (MIC) in data set [1] of 3.12 µg/mL (≈ 10.1 µM). Besides, the pKa in data set [2] was found to be 5.6. Also, the inhibition of growth at 6.25 µg/mL in data set [5] was 90%. Further, in data set [6], the result was Active.
Take `CC(=O)/C(C)=N/OCc1cc(=O)oc2c(C)c(C)ccc12`: in [1], inhibition of growth (MIC) required 0.09 µg/mL (≈ 0.313 µM). Besides, in data set [2], the pKa was 5.5. Also, in data set [4], the Stability result is given as “Stable”. In addition, in data set [5], the inhibition of growth at 6.25 µg/mL amounted to 95%. The outcome in [6] was Active. In data set [18], the viability at 72 h, 0.9 ug/ml was determined as 84%.
